In patent US20050019850A1, “Method for identifying fungicidally active compounds based on guanylate kinases” (priority 2003, published 2005):

Biological target: U. maydis guanylate kinase (Mycosarcoma maydis, UniProt A0A0D1DZ04)
Experiment: Determination of the KM value of guanylate kinase for its substrates (Lineweaver/Burk)
Type: biochemical, Ustilago maydis
Settings: read-out: KM value; FIG. 3, Lineweaver/Burk representation; substrate of guanylate kinase
Excerpt: Lineweaver/Burk representation of the data: 1/Vo=1/Vmax+1/S×(KM/Vmax), wherein Vo is the initial reaction rate, Vmax the maximum conversion rate possible and S the substrate concentration. Vmax and KM can then be read as the intercepts on the horizontal and the vertical axes 1/Vmax and 1/KM, respectively.
Here, pyruvate kinase converts phosphoenolpyruvate into pyruvate, which is then utilised by lactate dehydrogenase for oxidizing NADH to give NAD. The NAD concentration, which increases owing to the coupled reaction, or the NADH concentration, which decreases owing to the coupled reaction, can be measured photospectrometrically by absorption or fluorescence measurement (absorption drops at 340 nm, fluorescence drops at 340 nm (emission at 465 nm)).

U. maydis guanylate kinase, sequence (A0A0D1DZ04 118-213, added parts left off): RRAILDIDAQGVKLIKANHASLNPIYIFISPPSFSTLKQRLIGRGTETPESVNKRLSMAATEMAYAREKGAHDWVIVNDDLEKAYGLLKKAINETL

SMILES | Km
Nc1ncnc2c1ncn2[C@@H]1O[C@H](COP(=O)(O)OP(=O)(O)OP(=O)(O)O)[C@@H](O)[C@H]1O [ATP] | 100 µM
Nc1nc2c(ncn2[C@@H]2O[C@H](COP(=O)(O)O)[C@@H](O)[C@H]2O)c(=O)[nH]1 [GMP] | 40 µM
